Assay results published in patent publication US9896441B2 (Lycera Corporation, priority 2014, dated 2018).
pEC50: −log10 of the molar value.

How the values were obtained:
RORγ-LBD = target: T1, RORγ-LBD (Homo sapiens, UniProt P51449); experiment: RORγ-Ligand Binding Domain (LBD) TR-FRET Assay; format: biochemical; settings: RORγ-LBD TR-FRET assay; for TR-FRET Assay Max Response: maximum response;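 as to TR-FRET Assay Max Response: 665/615 nm signal ratio set to 100 without ursolic acid or test compound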
T1 construct: made in house; host or cells: SF9 cells (baculovirus); used as diluted lysate
T1 sequence (P51449 269-508 limits assumed): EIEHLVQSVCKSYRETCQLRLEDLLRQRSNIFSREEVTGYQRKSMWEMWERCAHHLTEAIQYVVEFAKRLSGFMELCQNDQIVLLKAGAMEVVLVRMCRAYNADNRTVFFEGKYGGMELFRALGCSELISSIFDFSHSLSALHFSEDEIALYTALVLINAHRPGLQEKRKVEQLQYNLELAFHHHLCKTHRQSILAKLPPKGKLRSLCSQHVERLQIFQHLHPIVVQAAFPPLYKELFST
Method in brief: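 TR-FRET read-out using a biotin-tagged SRC1 coactivator LXXLL peptide (200 nM final), with the antagonist ursolic acid present at 2 μM final. Receptor is His-tagged LBD expressed in SF9 cells, ~3 nM final in pH 7.0 Tris/KCl/EDTA/DTT/BSA buffer; compounds in 1% DMSO final.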

Gal4-RORγ-LBD = target: T2, Gal4-RORγ-LBD (Homo sapiens, UniProt P51449); experiment: Gal4-RORγ Luciferase Reporter Assay in HEK-293T Cells; format: cell-based; settings: HEK-293 cells, luciferase reporter, in presence of ursolic acid; for Gal4-RORγ Assay Max Response: maximum response
T2 construct: expressed in transfected cells
T2 sequence (P51449 269-508 limits assumed): T1 sequence (P51449 269-508 limits assumed)
Method in brief: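 Max Response was taken as the upper plateau of a 4-parameter logistic fit of luciferase signal, normalized to 100 for wells without ursolic acid or compound. Transiently Gal4-RORγ-LBD/Gal4-luc transfected HEK-293 cells carrying […] ursolic acid were incubated with test compounds (0.2% DMSO) overnight at 37 °C and read with One-Glo.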

Structure (SMILES): CC(=O)N1CCN(C(=O)CC[C@H]2CN(S(=O)(=O)c3cccc(C(F)(F)F)c3)c3cc(/C=C(\C)c4c(F)cccc4Cl)ccc3O2)CC1 [Example 127J, (S,E)-1-(4-acetyl-piperazin-1-yl)-3-(6-(2-(2-chloro-6-fluorophenyl)prop-1-en-1-yl)-4-((3-(trifluoro-methyl)-phenyl)sulfonyl)-3,4-dihydro-2H-benzo[b]-[1,4]oxazin-2-yl)propan-1-one]
- pEC50 (RORγ-LBD): > 6.30
- TR-FRET Assay Max Response (RORγ-LBD): *** (a value in the range of greater than 150 to 200)
- pEC50 (Gal4-RORγ-LBD): > 6.30
- Gal4-RORγ Assay Max Response (Gal4-RORγ-LBD): ** (a value in the range of greater than 90 to 150)

Structure (SMILES): C/C(=C\c1ccc2c(c1)N(S(=O)(=O)c1cccc(C(F)(F)F)c1)C[C@H](CCC(=O)N1CCC(C(=O)[O-])CC1)O2)c1c(F)cccc1Cl.[Na+] [Example 128, Sodium Salt of (S,E)-1-(3-(6-(2-(2-Chloro-6-fluorophenyl)prop-1-en-1-yl)-4-((3-(trifluoromethyl)phenyl)sulfonyl)-3,4-dihydro-2H-benzo[b][1,4]oxazin-2-yl)propanoyl)piperidine-4-carboxylic acid]
- pEC50 (RORγ-LBD): > 6.30
- TR-FRET Assay Max Response (RORγ-LBD): **** (a value greater than 200)
- pEC50 (Gal4-RORγ-LBD): > 6.30
- Gal4-RORγ Assay Max Response (Gal4-RORγ-LBD): ** (a value in the range of greater than 90 to 150)

Structure (SMILES): O=C(O)C1CCN(C(=O)CC[C@H]2CN(S(=O)(=O)c3cccc(C(F)(F)F)c3)c3cc(/C=C/c4c(Cl)cccc4C(F)(F)F)ccc3O2)CC1 [Example 129A, (S,E)-1-(3-(6-(2-chloro-6-(trifluoromethyl)styryl)-4-((3-(trifluoromethyl)-phenyl)sulfonyl)-3,4-dihydro-2H-benzo[b]-[1,4]oxazin-2-yl)propanoyl)piperidine-4-carboxylic acid]
- pEC50 (RORγ-LBD): > 6.30
- TR-FRET Assay Max Response (RORγ-LBD): **** (a value greater than 200)
- pEC50 (Gal4-RORγ-LBD): > 6.30
- Gal4-RORγ Assay Max Response (Gal4-RORγ-LBD): ** (a value in the range of greater than 90 to 150)

Structure (SMILES): C/C(=C\c1ccc2c(c1)N(S(=O)(=O)c1cccc(C(F)(F)F)c1)C[C@H](CCC(=O)N1CC[C@@H](C(=O)O)C1)O2)c1c(F)cccc1Cl [Example 129B, (R)-1-(3-((S)-6-((E)-2-(2-chloro-6-fluorophenyl)-prop-1-en-1-yl)-4-((3-(trifluoromethyl)phenyl)sulfonyl)-3,4-dihydro-2H-benzo[b][1,4]oxazin-2-yl)propanoyl)pyrrolidine-3-carboxylic acid]
- pEC50 (RORγ-LBD): > 6.30
- TR-FRET Assay Max Response (RORγ-LBD): **** (a value greater than 200)
- pEC50 (Gal4-RORγ-LBD): > 6.30
- Gal4-RORγ Assay Max Response (Gal4-RORγ-LBD): ** (a value in the range of greater than 90 to 150)

Structure (SMILES): C/C(=C\c1ccc2c(c1)N(S(=O)(=O)c1cccc(C(F)(F)F)c1)C[C@H](CCC(=O)N1CC[C@H](C(=O)O)C1)O2)c1c(F)cccc1Cl [Example 129C, (S)-1-(3-((S)-6-((E)-2-(2-chloro-6-fluorophenyl)-prop-1-en-1-yl)-4-((3-(trifluoromethyl)phenyl)sulfonyl)-3,4-dihydro-2H-benzo[b][1,4]oxazin-2-1)propanoyl)pyrrolidine-3-carboxylic acid]
- pEC50 (RORγ-LBD): > 6.30
- TR-FRET Assay Max Response (RORγ-LBD): **** (a value greater than 200)
- pEC50 (Gal4-RORγ-LBD): > 6.30
- Gal4-RORγ Assay Max Response (Gal4-RORγ-LBD): ** (a value in the range of greater than 90 to 150)

Structure (SMILES): C/C(=C\c1ccc2c(c1)N(S(=O)(=O)c1cccc(C(F)(F)F)c1)C[C@H](CCC(=O)N1CC(C(=O)O)C1)O2)c1c(F)cccc1Cl [Example 129D, (S,E)-1-(3-(6-(2-(2-chloro-6-fluorophenyl)-prop-1-en-1-yl)-4-((3-(trifluoromethyl)phenyl)sulfonyl)-3,4-dihydro-2H-benzo[b][1,4]oxazin-2-yl)propanoyl)azetidine-3-carboxylic acid]
- pEC50 (RORγ-LBD): > 6.30
- TR-FRET Assay Max Response (RORγ-LBD): **** (a value greater than 200)
- pEC50 (Gal4-RORγ-LBD): > 6.30
- Gal4-RORγ Assay Max Response (Gal4-RORγ-LBD): ** (a value in the range of greater than 90 to 150)
